According to patent US9249151B2, “Bis-amido pyridines” (Boehringer Ingelheim International GmbH, priority 2013, dated 2016):
Read-outs that look alike come from different tables or passages of the source.

Biological target: BIR3 domain of human cIAP1 (amino acids 256 to 363; cIAP1 BIR3) (Homo sapiens (Human), UniProt Q13490)
Assay: cIAP1 BIR3 binding assay (DELFIA)
Experimental: XIAP BIR3 and cIAP1 BIR3 Binding Assays (DELFIA)
Peptide […]-Lys(Biotin), representing the N-terminus of mature human SMAC (SMAC peptide), was used as interaction partner in the protein-peptide interaction assay.
BIR3 domains (10 nM) were incubated with SMAC peptide (10 nM) in assay buffer (50 mM Tris, 120 mM NaCl, 0.1% BSA, 1 mM DTT, 0.05% TritonX100) for one hour at room temperature in the presence of inhibitory compounds. The assay mixture was transferred to a streptavidin coated plate and incubated for one hour at room temperature to allow binding of the biotinylated peptide and associated BIR3 domains to the plate. After several washing steps Eu labeled anti-GST antibody (e.g. Perkin Elmer DELFIA Eu-N1-antiGST AD0250) was added to detect BIR3 domain-SMAC peptide interactions m according to Perkin Elmer's instructions. […] Time resolved Europium fluoresecence was measured in a Wallac Victor using Standard assay settings.
DELFIA assay results were plotted against compound concentrations and Software GraphPad Prizm was used to calculate half maximal inhibitory concentrations (IC50 values).

[1] = BIR3 domain 10 nM, SMAC peptide 10 nM, values represent the (S)-isomers, * = racemic compound, read-out: cIAP1 BIR-3 IC50

BIR3 domain of human cIAP1 (amino acids 256 to 363; cIAP1 BIR3), sequence (Q13490 256-363): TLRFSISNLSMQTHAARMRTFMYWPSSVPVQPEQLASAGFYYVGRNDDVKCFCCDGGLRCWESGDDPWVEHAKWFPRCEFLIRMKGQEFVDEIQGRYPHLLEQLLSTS

SMILES	IC50 [1]	IC50
CNC(C)C(=O)Nc1cc(-c2ncnc3c(C)nn(C)c23)cc(NC(=O)c2ccc(Cl)cn2)n1 (stereo not drawn) [Example 1, 5-chloro-N-(4-{1,3-dimethyl-1H-pyrazolo[4,3-d]pyrimidin-7-yl}-6-[2-(methylamino)propanamido]pyridin-2-yl)pyridine-2-carboxamide]	1 nM	–
CNC(C)C(=O)Nc1cc(-c2ncnc3c(C)nn(C)c23)cc(NC(=O)c2cc3c(cn2)COC3)n1 (stereo not drawn) [Example 2, N-(4-{1,3-dimethyl-1H-pyrazolo[4,3-d]pyrimidin-7-yl}-6-[2-(methylamino)propanamido]-pyridin-2-yl)-1H,3H-furo[3,4-c]pyridine-6-carboxamide]	2 nM	–
CNC(C)C(=O)Nc1cc(-c2c(C)noc2C)cc(NC(=O)c2ccc(Cl)cn2)n1 (stereo not drawn) [Example 3, 5-chloro-N-[4-(dimethyl-1,2-oxazol-4-yl)-6-[2-(methylamino)propanamido]-pyridin-2-yl]pyridine-2-carboxamide]	3 nM	–
CNC(C)C(=O)Nc1cc(-c2ccncc2C#N)cc(NC(=O)c2ccc(Cl)cn2)n1 (stereo not drawn) [Example 4, 5-chloro-N-[4-(3-cyanopyridin-4-yl)-6-[2-(methylamino)propanamido]-pyridin-2-yl]pyridine-2-carboxamide]	28 nM	–
CNC(C)C(=O)Nc1cc(-c2c(C)ncnc2C)cc(NC(=O)c2ccc(Cl)cn2)n1 (stereo not drawn) [Example 5, 5-chloro-N-[4-(4,6-dimethylpyrimidin-5-yl)-6-[2-(methylamino)propanamido]-pyridin-2-yl]pyridine-2-carboxamide]	5 nM	–
CNC(C)C(=O)Nc1cc(-c2ncnc3cccc(C)c23)cc(NC(=O)c2ccc(Cl)cn2)n1 (stereo not drawn) [Example 9, 5-chloro-N-{6-[2-(methylamino)propanamido]-4-(5-methylquinazolin-4-yl)pyridin-2-yl}pyridine-2-carboxamide]	–	1 nM
CNC(C)C(=O)Nc1cc(-c2ncnc3nc(C)n(C)c23)cc(NC(=O)c2ccc(Cl)cn2)n1 (stereo not drawn) [Example 16, 5-chloro-N-[4-(7,8-dimethyl-7H-purin-6-yl)-6-[2-(methylamino)propanamido]-pyridin-2-yl]pyridine-2-carboxamide]	1 nM	–
CNC(C)C(=O)Nc1cc(-c2nn(C)c3ncnc(N)c23)cc(NC(=O)c2ccccn2)n1 (stereo not drawn) [Example 17, N-(4-{4-amino-1-methyl-1H-pyrazolo[3,4-d]pyrimidin-3-yl}-6-[2-(methylamino)propanamido]-pyridin-2-yl)pyridine-2-carboxamide]	95 nM	–
CNC(C)C(=O)Nc1cc(-c2c(OC)ccc3nccnc23)cc(NC(=O)c2ccc(Cl)cn2)n1 (stereo not drawn) [Example 20, 5-chloro-N-[4-(6-methoxyquinoxalin-5-yl)-6-[2-(methylamino)propanamido]-pyridin-2-yl]pyridine-2-carboxamide]	50 nM	–
CNC(C)C(=O)Nc1cc(-c2nc(C)nc3c(C)nn(C)c23)cc(NC(=O)c2ccc(Cl)cn2)n1 (stereo not drawn) [Example 21, 5-chloro-N-{6-[2-(methylamino)propanamido]-4-{trimethyl-1H-pyrazolo[4,3-d]pyrimidin-7-yl}pyridin-2-yl}pyridine-2-carboxamide]	1 nM	–
CNC(C)C(=O)Nc1cc(-c2ccnc3cc(F)cc(F)c23)cc(NC(=O)c2ccc(Cl)cn2)n1 (stereo not drawn) [Example 23, 5-chloro-N-[4-(5,7-difluoroquinolin-4-yl)-6-[2-(methylamino)propanamido]-pyridin-2-yl]pyridine-2-carboxamide]	8 nM	–
CNC(C)C(=O)Nc1cc(-c2c(OC)ccc3cc(C#N)ccc23)cc(NC(=O)c2ccc(Cl)cn2)n1 (stereo not drawn) [Example 25, 5-chloro-N-[4-(6-cyano-2-methoxynaphihalen-1-yl)-6-[2-(methylamino)propanamido]-pyridin-2-yl]pyridine-2-carboxamide]	–	47 nM
CNC(C)C(=O)Nc1cc(-c2c(C)nc(C)c3c(=O)n(C)n(C)c23)cc(NC(=O)c2ccc(Cl)cn2)n1 (stereo not drawn) [Example 26, 5-chloro-N-{6-[2-(methylamino)propanamido]-4-{1,2,4,6-tetramethyl-3-oxo-1H,2H,3H-pyrazolo[4,3-c]pyridin-7-yl}pyridin-2-yl}pyridine-2-carboxamide]	1 nM	–
CNC(C)C(=O)Nc1cc(-c2c(Cl)c(C)nc3cc(Cl)cc(Cl)c23)cc(NC(=O)c2ccc(Cl)cn2)n1 (stereo not drawn) [Example 27, 5-chloro-N-{6-[2-(methylamino)propanamido]-4-(3,5,7-trichloro-2-methylquinolin-4-yl)pyridin-2-yl}pyridine-2-carboxamide]	18 nM	–
CNC(C)C(=O)Nc1cc(-c2c(C)ccc3ncccc23)cc(NC(=O)c2cc3c(cn2)COC3)n1 (stereo not drawn) [Example 28, N-{6-[2-(methylamino)propanamido]-4-(6-methylquinolin-5-yl)pyridin-2-yl}-1H,3H-furo[3,4-c]pyridine-6-carboxamide]	31 nM	–
CNC(C)C(=O)Nc1cc(-c2c(C)ccc3ncccc23)cc(NC(=O)c2ccc(C)cn2)n1 (stereo not drawn) [Example 29, 5-methyl-N-{6-[2-(methylamino)propanamido]-4-(6-methylquinolin-5-yl)pyridin-2-yl}pyridine-2-carboxamide]	28 nM	–

More lines, main results first:

IC50 [1]	SMILES	IC50
3 nM	CNC(C)C(=O)Nc1cc(-c2nccc3c(=O)n(C)n(C)c23)cc(NC(=O)c2ccc(Cl)cn2)n1 (racemic) [Example 58, 5-chloro-N-(4-{1,2-dimethyl-3-oxo-1H,2H,3H-pyrazolo-[3,4-c]pyridin-7-yl}-6-[2-(methylamino)propanamido]-pyridin-2-yl)pyridine-2-carboxamide]	–
10 nM	CNC(C)C(=O)Nc1cc(-c2c(C)nc3ccccn23)cc(NC(=O)c2ccc(Cl)cn2)n1 (stereo not drawn) [Example 6, 5-chloro-N-{6-[2-(methylamino)propanamido]-4-{2-methylimidazo[1,2-a]pyridin-3-yl}pyridin-2-yl}pyridine-2-carboxamide]	–
3 nM	CNC(C)C(=O)Nc1cc(-c2cccc3cnn(C)c23)cc(NC(=O)c2ccc(Cl)cn2)n1 (stereo not drawn) [Example 7, 5-chloro-N-[4-(1-methyl-1H-indazol-7-yl)-6-[2-(methylamino)propanamido]-pyridin-2-yl]pyridine-2-carboxamide]	–
1 nM	CNC(C)C(=O)Nc1cc(-c2nccc3cccc(C)c23)cc(NC(=O)c2ccc(Cl)cn2)n1 (stereo not drawn) [Example 8, 5-chloro-N-{6-[2-(methylamino)propanamido]-4-(8-methylisoquinolin-1-yl)pyridin-2-yl}pyridine-2-carboxamide]	–
7 nM	CNC(C)C(=O)Nc1cc(-c2c(C)nc3cccc(C)n23)cc(NC(=O)c2ccc(Cl)cn2)n1 (stereo not drawn) [Example 10, 5-chloro-N-(4-{2,5-dimethylimidazo[1,2-a]pyridin-3-yl]-6-[2-(methylamino)propanamido]-pyridin-2-yl)pyridine-2-carboxamide]	–
1 nM	CNC(C)C(=O)Nc1cc(-c2cccc3nc(C)c(C)n23)cc(NC(=O)c2ccc(Cl)cn2)n1 (stereo not drawn) [Example 11]	–
3 nM	CNC(C)C(=O)Nc1cc(-c2cccc3nn(C)c(C)c23)cc(NC(=O)c2ccc(Cl)cn2)n1 (stereo not drawn) [Example 12, 5-chloro-N-[4-(2,3-dimethyl-2H-indazol-4-yl)-6-[2-(methylamino)propanamido]-pyridin-2-yl]pyridine-2-carboxamide]	–
2 nM	CNC(C)C(=O)Nc1cc(-c2cccc3c2c(C)nn3C)cc(NC(=O)c2ccc(Cl)cn2)n1 (stereo not drawn) [Example 13, 5-chloro-N-[4-(1,3-dimethyl-1H-indazol-4-yl)-6-[2-(methylamino)propanamido]-pyridin-2-yl]pyridine-2-carboxamide]	–
1 nM	CNC(C)C(=O)Nc1cc(-c2ncnc3cccc(F)c23)cc(NC(=O)c2ccc(Cl)cn2)n1 (stereo not drawn) [Example 14, 5-chloro-N-[4-(5-fluoroquinazolin-4-yl)-6-[2-(methylamino)propanamido]-pyridin-2-yl]pyridine-2-carboxamide]	–
1 nM	CNC(C)C(=O)Nc1cc(-c2ncnc3oc(C)c(C)c23)cc(NC(=O)c2ccc(Cl)cn2)n1 (stereo not drawn) [Example 15, 5-chloro-N-(4-{5,6-dimethylfuro[2,3-d]pyrimidin-4-yl}-6-[2-(methylamino)propanamido]-pyridin-2-yl)pyridine-2-carboxamide]	–
1 nM	CNC(C)C(=O)Nc1cc(-c2cnc3cccc(Cl)n23)cc(NC(=O)c2ccc(Cl)cn2)n1 (stereo not drawn) [Example 18, 5-chloro-N-(4-{5-chloroimidazo[1,2-a]pyridin-3-yl}-6-[2-(methylamino)propanamido]-pyridin-2-yl)pyridine-2-carboxamide]	–
225 nM	CNC(C)C(=O)Nc1cc(-c2c(OC)ccc3ccccc23)cc(NC(=O)c2ccc(Cl)cn2)n1 (stereo not drawn) [Example 19, 5-chloro-N-[4-(2-methoxynaphthalen-1-yl)-6-[2-(methylamino)propanamido]-pyridin-2-yl]pyridine-2-carboxamide]	–
1 nM	CNC(C)C(=O)Nc1cc(-c2ncnc3cccc(Cl)c23)cc(NC(=O)c2ccc(Cl)cn2)n1 (stereo not drawn) [Example 22, 5-chloro-N-[4-(5-chloroquinazolin-4-yl)-6-[2-(methylamino)propanamido]-pyridin-2-yl]pyridine-2-carboxamide]	–
1 nM	CNC(C)C(=O)Nc1cc(-c2c(OC)ccc3nccc(C)c23)cc(NC(=O)c2ccc(Cl)cn2)n1 (stereo not drawn) [Example 24, 5-chloro-N-[4-(6-methoxy-4-methylquinolin-5-yl)-6-[2-(methylamino)propanamido]-pyridin-2-yl]pyridine-2-carboxamide]	–
